Columns and labels:
Conditions in all cases: Compound concentration 100.0 nM
[1] = tested on: Tyrosine-protein kinase ABL1 (Homo sapiens), P00519 [F317L]
[2] = tested on: Tyrosine-protein kinase ABL1 (Homo sapiens), P00519 [Q252H]
[3] = target: Activin receptor type-1-like (Homo sapiens) (UniProt P37023)
[4] = target: Mitogen-activated protein kinase kinase kinase 5 (Homo sapiens) (UniProt Q99683)
[5] = target: Bone morphogenetic protein receptor type-1B (Homo sapiens) (UniProt O00238)
[6] = target: Serine/threonine-protein kinase B-raf (Homo sapiens, UniProt P15056)
[7] = target: Cyclin-dependent kinase-like 3 (Homo sapiens) (UniProt Q8IVW4)
[8] = target: Cyclin-dependent kinase-like 5 (Homo sapiens) (UniProt O76039)
[9] = target: Macrophage colony-stimulating factor 1 receptor (Homo sapiens) (UniProt P07333)
[10] = target: Casein kinase I isoform delta (Homo sapiens) (UniProt P48730)
[11] = target: Discoidin domain-containing receptor 2 (Homo sapiens) (UniProt Q16832)
[12] = tested on: Epidermal growth factor receptor (Homo sapiens), P00533 [T790M]
[13] = target: Ephrin type-A receptor 4 (Homo sapiens) (UniProt P54764)
[14] = target: Ephrin type-A receptor 6 (Homo sapiens) (UniProt Q9UF33)
Chain of Ephrin type-A receptor 6 (Homo sapiens) (Q9UF33 whole entry): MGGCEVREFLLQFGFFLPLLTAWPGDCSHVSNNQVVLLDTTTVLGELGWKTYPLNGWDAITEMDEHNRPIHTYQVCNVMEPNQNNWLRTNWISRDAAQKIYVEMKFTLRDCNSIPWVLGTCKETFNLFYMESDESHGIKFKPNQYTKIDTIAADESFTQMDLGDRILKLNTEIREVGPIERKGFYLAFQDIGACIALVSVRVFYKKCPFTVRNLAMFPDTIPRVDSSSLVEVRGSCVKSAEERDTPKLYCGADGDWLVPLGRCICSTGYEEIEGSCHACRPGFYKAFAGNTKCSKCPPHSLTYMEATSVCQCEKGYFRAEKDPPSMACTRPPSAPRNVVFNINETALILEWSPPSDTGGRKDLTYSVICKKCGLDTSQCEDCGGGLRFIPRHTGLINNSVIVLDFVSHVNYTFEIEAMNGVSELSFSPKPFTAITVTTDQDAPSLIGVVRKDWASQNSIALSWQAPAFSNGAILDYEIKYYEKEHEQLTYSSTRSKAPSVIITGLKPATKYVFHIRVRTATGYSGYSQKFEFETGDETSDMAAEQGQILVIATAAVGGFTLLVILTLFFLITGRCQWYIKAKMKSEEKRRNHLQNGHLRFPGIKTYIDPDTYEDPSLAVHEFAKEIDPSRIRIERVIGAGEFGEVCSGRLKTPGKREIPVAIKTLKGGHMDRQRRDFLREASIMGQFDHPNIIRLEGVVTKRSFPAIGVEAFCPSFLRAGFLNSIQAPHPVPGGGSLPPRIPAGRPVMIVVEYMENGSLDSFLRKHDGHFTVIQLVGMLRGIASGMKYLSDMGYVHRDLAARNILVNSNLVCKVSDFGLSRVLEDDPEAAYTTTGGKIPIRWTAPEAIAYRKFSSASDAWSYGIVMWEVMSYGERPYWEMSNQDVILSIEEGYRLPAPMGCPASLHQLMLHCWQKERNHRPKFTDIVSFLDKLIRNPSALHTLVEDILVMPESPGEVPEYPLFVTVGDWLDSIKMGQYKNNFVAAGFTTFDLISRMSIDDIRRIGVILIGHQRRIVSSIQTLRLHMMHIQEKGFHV

[15] = target: Receptor tyrosine-protein kinase erbB-3 (Homo sapiens) (UniProt P21860)
[16] = target: Focal adhesion kinase 1 (Homo sapiens) (UniProt Q05397)
[17] = tested on: Receptor-type tyrosine-protein kinase FLT3 (Homo sapiens), P36888 [UNDEFINED MUTATION]
[18] = tested on: Receptor-type tyrosine-protein kinase FLT3 (Homo sapiens), P36888 [K663Q]
[19] = target: Cyclin-G-associated kinase (Homo sapiens) (UniProt O14976)
[20] = tested on: eIF-2-alpha kinase GCN2 (Homo sapiens), Q9P2K8 [S808G]
[21] = target: Tyrosine-protein kinase JAK3 (Homo sapiens) (UniProt P52333)
Chain of Tyrosine-protein kinase JAK3 (Homo sapiens) (P52333 whole entry): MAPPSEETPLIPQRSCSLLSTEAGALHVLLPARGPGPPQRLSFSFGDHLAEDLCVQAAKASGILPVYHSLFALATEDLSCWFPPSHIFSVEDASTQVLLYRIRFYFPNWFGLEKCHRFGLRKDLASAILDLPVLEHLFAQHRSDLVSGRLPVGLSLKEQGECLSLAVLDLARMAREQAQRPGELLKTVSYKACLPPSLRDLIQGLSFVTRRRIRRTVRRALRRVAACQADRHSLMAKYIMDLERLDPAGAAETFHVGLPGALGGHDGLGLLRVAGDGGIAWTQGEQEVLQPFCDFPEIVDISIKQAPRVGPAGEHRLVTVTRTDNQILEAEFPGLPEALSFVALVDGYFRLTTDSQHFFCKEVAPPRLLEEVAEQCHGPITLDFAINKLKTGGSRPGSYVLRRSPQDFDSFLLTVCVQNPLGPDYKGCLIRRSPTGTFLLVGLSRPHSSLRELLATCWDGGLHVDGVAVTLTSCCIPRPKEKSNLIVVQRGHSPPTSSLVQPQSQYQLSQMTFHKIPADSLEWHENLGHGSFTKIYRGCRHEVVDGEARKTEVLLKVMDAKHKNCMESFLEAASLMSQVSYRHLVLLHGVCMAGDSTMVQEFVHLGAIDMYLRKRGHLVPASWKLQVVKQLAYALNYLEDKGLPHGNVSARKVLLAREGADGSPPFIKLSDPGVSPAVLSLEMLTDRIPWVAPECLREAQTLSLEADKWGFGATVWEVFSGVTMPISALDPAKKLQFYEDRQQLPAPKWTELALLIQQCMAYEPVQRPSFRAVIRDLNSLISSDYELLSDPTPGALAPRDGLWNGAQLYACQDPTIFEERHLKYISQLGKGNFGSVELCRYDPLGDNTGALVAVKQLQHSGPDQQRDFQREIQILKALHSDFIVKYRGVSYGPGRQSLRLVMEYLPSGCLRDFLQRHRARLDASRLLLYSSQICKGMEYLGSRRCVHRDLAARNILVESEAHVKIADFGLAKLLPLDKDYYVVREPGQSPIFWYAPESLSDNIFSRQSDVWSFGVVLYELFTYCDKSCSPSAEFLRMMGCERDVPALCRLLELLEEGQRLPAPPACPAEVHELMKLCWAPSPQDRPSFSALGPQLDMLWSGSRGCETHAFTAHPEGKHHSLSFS

[22] = tested on: Mast/stem cell growth factor receptor Kit (Homo sapiens), P10721 [D816V]
[23] = tested on: Mast/stem cell growth factor receptor Kit (Homo sapiens), P10721 [V559D,T670I]
[24] = target: Serine/threonine-protein kinase MARK1 (Homo sapiens) (UniProt Q9P0L2)
[25] = target: Dual specificity mitogen-activated protein kinase kinase 4 (Homo sapiens) (UniProt P45985)
[26] = target: Tyrosine-protein kinase Mer (Homo sapiens) (UniProt Q12866)
[27] = target: MAP kinase-interacting serine/threonine-protein kinase 2 (Homo sapiens) (UniProt Q9HBH9)
[28] = target: Serine/threonine-protein kinase 26 (Homo sapiens) (UniProt Q9P289)
[29] = target: Serine/threonine-protein kinase mTOR (Homo sapiens) (UniProt P42345)
[30] = target: Serine/threonine-protein kinase Nek6 (Homo sapiens) (UniProt Q9HC98)
[31] = target: Mitogen-activated protein kinase 13 (Homo sapiens) (UniProt O15264)
[32] = target: Serine/threonine-protein kinase PAK 2 (Homo sapiens) (UniProt Q13177)
[33] = target: Cyclin-dependent kinase 16 (Homo sapiens) (UniProt Q00536)
[34] = target: Cyclin-dependent kinase 14 (Homo sapiens) (UniProt O94921)
[35] = target: Phosphorylase b kinase gamma catalytic chain, skeletal muscle/heart isoform (Homo sapiens) (UniProt Q16816)
[36] = target: Phosphatidylinositol 4,5-bisphosphate 3-kinase catalytic subunit delta isoform (Homo sapiens) (UniProt O00329)
[37] = target: Membrane-associated tyrosine- and threonine-specific cdc2-inhibitory kinase (Homo sapiens) (UniProt Q99640)
Chain of Membrane-associated tyrosine- and threonine-specific cdc2-inhibitory kinase (Homo sapiens) (Q99640 whole entry): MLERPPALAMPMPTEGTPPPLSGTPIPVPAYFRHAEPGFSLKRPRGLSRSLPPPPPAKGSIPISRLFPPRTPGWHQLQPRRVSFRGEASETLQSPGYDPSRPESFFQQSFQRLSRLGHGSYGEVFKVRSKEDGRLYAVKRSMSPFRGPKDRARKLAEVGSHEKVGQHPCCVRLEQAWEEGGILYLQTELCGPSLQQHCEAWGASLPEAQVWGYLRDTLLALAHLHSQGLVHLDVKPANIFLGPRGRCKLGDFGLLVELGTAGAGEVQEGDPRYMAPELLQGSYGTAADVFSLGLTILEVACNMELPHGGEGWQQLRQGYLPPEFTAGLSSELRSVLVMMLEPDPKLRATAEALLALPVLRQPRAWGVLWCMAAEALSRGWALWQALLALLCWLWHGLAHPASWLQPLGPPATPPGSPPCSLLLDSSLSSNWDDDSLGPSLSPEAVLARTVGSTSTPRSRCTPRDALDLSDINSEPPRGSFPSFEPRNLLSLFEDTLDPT

[38] = target: Serine/threonine-protein kinase PknB (Mycobacterium tuberculosis) (UniProt P9WI81)
Chain of Serine/threonine-protein kinase PknB (Mycobacterium tuberculosis) (P9WI81 whole entry): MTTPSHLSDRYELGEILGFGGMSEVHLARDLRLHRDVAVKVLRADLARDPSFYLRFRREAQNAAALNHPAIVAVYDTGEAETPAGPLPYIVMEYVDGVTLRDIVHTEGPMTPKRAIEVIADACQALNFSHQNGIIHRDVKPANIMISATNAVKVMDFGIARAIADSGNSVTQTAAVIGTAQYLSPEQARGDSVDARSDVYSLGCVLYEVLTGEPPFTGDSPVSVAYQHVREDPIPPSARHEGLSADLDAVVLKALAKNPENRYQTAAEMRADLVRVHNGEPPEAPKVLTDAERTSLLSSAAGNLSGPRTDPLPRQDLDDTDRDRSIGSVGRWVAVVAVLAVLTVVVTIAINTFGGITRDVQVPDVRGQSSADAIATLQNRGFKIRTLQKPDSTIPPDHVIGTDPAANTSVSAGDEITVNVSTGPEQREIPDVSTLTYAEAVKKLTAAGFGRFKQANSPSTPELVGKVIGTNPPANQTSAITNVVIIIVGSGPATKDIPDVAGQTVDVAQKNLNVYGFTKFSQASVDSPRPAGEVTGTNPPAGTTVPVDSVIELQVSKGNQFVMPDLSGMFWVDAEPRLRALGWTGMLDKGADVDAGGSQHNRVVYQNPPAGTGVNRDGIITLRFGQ

[39] = target: Serine/threonine-protein kinase D2 (Homo sapiens) (UniProt Q9BZL6)
[40] = target: Serine/threonine-protein kinase PRP4 homolog (Homo sapiens) (UniProt Q13523)
[41] = target: Ribosomal protein S6 kinase alpha-3 (Homo sapiens) (UniProt P51812)
Chain of Ribosomal protein S6 kinase alpha-3 (Homo sapiens) (P51812 whole entry): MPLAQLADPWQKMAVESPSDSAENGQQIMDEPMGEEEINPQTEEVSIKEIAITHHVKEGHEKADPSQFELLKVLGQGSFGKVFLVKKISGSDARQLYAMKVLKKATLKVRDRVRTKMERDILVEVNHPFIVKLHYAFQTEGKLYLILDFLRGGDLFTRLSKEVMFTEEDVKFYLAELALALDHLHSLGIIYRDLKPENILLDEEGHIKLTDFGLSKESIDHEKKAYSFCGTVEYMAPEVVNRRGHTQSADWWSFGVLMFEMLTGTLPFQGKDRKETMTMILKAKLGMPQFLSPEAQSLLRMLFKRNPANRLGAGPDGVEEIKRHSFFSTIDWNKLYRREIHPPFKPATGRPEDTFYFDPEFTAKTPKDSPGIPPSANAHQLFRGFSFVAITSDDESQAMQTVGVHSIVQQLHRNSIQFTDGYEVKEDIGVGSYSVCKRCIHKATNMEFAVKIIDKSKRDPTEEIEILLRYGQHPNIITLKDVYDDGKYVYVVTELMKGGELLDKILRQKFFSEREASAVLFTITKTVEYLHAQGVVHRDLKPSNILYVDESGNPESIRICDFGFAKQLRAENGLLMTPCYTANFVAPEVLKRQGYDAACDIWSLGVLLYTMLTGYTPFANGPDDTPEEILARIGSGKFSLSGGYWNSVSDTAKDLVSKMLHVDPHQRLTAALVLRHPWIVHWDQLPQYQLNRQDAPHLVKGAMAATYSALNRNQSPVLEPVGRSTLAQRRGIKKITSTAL

[42] = target: Ribosomal protein S6 kinase alpha-3 (Homo sapiens) (UniProt P51812); remark: listed apart in the source
[43] = target: Serine/threonine-protein kinase Sgk2 (Homo sapiens) (UniProt Q9HBY8)
[44] = target: Serine/threonine-protein kinase tousled-like 1 (Homo sapiens) (UniProt Q9UKI8)
[45] = target: Serine/threonine-protein kinase ULK1 (Homo sapiens) (UniProt O75385)
Chain of Serine/threonine-protein kinase ULK1 (Homo sapiens) (O75385 whole entry): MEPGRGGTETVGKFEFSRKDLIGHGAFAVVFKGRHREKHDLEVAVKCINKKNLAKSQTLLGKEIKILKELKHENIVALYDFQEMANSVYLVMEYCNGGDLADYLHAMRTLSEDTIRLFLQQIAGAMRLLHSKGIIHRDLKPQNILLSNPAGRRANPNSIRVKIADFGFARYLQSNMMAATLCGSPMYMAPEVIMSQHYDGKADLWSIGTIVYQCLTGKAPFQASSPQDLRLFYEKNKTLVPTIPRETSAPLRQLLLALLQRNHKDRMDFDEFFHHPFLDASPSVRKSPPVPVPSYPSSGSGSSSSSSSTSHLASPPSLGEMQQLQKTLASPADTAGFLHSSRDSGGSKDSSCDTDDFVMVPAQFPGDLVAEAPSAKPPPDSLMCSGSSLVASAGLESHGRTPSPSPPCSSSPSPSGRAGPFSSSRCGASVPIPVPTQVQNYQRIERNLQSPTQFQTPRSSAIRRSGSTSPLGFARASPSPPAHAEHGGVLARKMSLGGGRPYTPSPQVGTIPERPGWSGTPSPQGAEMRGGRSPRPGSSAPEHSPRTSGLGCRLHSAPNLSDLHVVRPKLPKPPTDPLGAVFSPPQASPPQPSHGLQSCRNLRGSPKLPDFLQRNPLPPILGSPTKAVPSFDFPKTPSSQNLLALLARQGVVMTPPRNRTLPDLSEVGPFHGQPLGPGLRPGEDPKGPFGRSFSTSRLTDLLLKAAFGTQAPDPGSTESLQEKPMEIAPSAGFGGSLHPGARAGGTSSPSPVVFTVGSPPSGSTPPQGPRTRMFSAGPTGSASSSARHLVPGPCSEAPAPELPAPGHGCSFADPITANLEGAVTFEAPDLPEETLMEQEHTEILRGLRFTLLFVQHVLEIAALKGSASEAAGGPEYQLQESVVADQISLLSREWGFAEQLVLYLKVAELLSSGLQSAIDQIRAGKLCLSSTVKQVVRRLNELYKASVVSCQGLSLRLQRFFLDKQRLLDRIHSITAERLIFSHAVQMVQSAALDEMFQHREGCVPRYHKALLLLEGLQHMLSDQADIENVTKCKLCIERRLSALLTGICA

## CS(=O)(=O)N1CCCC(NC(=O)[C@H](CCC2CCCCC2)NC(=O)c2ccc(CNc3ncnc4c3nnn4-c3ccccc3)cc2)C1 (stereo not given in full) [SR-301]
[1]
  residual activity: 100%
[2]
  residual activity: 89%
[3]
  residual activity: 97%
[4]
  residual activity: 100%
[5]
  residual activity: 91%
[6]
  residual activity: 81%
[7]
  residual activity: 96%
[8]
  residual activity: 100%
[9]
  residual activity: 100%
[10]
  residual activity: 96%
[11]
  residual activity: 100%
[12]
  residual activity: 100%
[13]
  residual activity: 76%
[14]
  residual activity: 100%
[15]
  residual activity: 100%
[16]
  residual activity: 100%
[17]
  residual activity: 80%
[18]
  residual activity: 94%
[19]
  residual activity: 95%
[20]
  residual activity: 100%
[21]
  residual activity: 100%
[22]
  residual activity: 100%
[23]
  residual activity: 100%
[24]
  residual activity: 74%
[25]
  residual activity: 100%
[26]
  residual activity: 91%
[27]
  residual activity: 100%
[28]
  residual activity: 92%
[29]
  residual activity: 100%
[30]
  residual activity: 86%
[31]
  residual activity: 100%
[32]
  residual activity: 100%
[33]
  residual activity: 100%
[34]
  residual activity: 100%
[35]
  residual activity: 87%
[36]
  residual activity: 91%
[37]
  residual activity: 74%
[38]
  residual activity: 90%
[39]
  residual activity: 92%
[40]
  residual activity: 60%
[41]
  residual activity: 100%
[42]
  residual activity: 100%
[43]
  residual activity: 100%
[44]
  residual activity: 94%
[45]
  residual activity: 100%

## CS(=O)(=O)N1CCCC(NC(=O)[C@H](CCC2CCCCC2)NC(=O)c2ccc(CNC(=O)c3cnc4ccccn34)cc2)C1 (stereo not given in full) [SR-302]
[1]
  residual activity: 32%
[2]
  residual activity: 37%
[3]
  residual activity: 96%
[4]
  residual activity: 100%
[5]
  residual activity: 100%
[6]
  residual activity: 47%
[7]
  residual activity: 100%
[8]
  residual activity: 100%
[9]
  residual activity: 100%
[10]
  residual activity: 84%
[11]
  residual activity: 0%
[12]
  residual activity: 100%
[13]
  residual activity: 98%
[14]
  residual activity: 100%
[15]
  residual activity: 83%
[16]
  residual activity: 92%
[17]
  residual activity: 100%
[18]
  residual activity: 100%
[19]
  residual activity: 96%
[20]
  residual activity: 100%
[21]
  residual activity: 69%
[22]
  residual activity: 100%
[23]
  residual activity: 77%
[24]
  residual activity: 100%
[25]
  residual activity: 100%
[26]
  residual activity: 94%
[27]
  residual activity: 84%
[28]
  residual activity: 100%
[29]
  residual activity: 100%
[30]
  residual activity: 100%
[31]
  residual activity: 100%
[32]
  residual activity: 93%
[33]
  residual activity: 100%
[34]
  residual activity: 100%
[35]
  residual activity: 68%
[36]
  residual activity: 67%
[37]
  residual activity: 100%
[38]
  residual activity: 100%
[39]
  residual activity: 100%
[40]
  residual activity: 74%
[41]
  residual activity: 100%
[42]
  residual activity: 100%
[43]
  residual activity: 100%
[44]
  residual activity: 72%
[45]
  residual activity: 83%

— ChEMBL document CHEMBL4507324 (2021)
